In patent publication US6124269A, “2-Halo-6-O-substituted ketolide derivatives” (priority 1998, dated 2000):
≈ marks a conversion by molar mass, not a printed value.

How the values were obtained:
Format in all cases: cell-based
[1] = test system: Streptococcus pneumoniae 5979; assay: In vitro agar dilution MIC, organism code ZZ; settings: Table 1B, unit assumed
Experimental: (§1) Representative compounds of the present invention were assayed in vitro for antibacterial activity as follows: Twelve petri dishes containing successive aqueous dilutions of the test compound mixed with 10 mL of sterilized Brain Heart Infusion (BHI) agar (Difco 0418-01-5) were prepared. Each plate was inoculated with 1:100 (or 1:10 for slow-growing strains, such as Micrococcus and Streptococcus) dilutions of up to 32 different microorganisms, using a Steers replicator block. The inoculated plates were incubated at 35-37° C. for 20 to 24 hours. In addition, a control plate, using BHI agar containing no test compound, was prepared and incubated at the beginning and end of each test.
(§2) An additional plate containing a compound having known susceptibility patterns for the organisms being tested and belonging to the same antibiotic class as the test compound was also prepared and incubated as a further control, as well as to provide test-to-test comparability.
(§3) After incubation, each plate was visually inspected. The minimum inhibitory concentration (MIC) was defined as the lowest concentration of drug yielding no growth, a slight haze, or sparsely isolated colonies on the inoculum spot as compared to the growth control.

[2] = test system: Micrococcus luteus ATCC 4698; assay: In vitro agar dilution MIC, organism code PP; settings: Table 1B, in µg/mL (unit assumed)
Experimental: as §1, §2, §3

[3] = test system: Staphylococcus aureus CMX 553; assay: In vitro agar dilution MIC, organism code FF; settings: Table 1B, unit assumed
Experimental: as §1, §2, §3

[4] = test system: Streptococcus agalactiae CMX 508; assay: In vitro agar dilution MIC, organism code KK; settings: Table 1B, unit assumed
Experimental: as §1, §2, §3

[5] = test system: Staphylococcus aureus A-5278; assay: In vitro agar dilution MIC, organism code CC; settings: Table 1B, unit assumed
Experimental: as §1, §2, §3

[6] = test system: Staphylococcus aureus A5177; assay: In vitro agar dilution MIC, organism code BB; settings: Table 1B, in µg/mL (unit assumed)
Experimental: as §1, §2, §3

Candida albicans CCH 442 = assay: In vitro agar dilution MIC, organism code TT; settings: Table 1B, unit assumed
Experimental: as §1, §2, §3

[7] = test system: Micrococcus luteus ATCC 9341; assay: In vitro agar dilution MIC, organism code OO; settings: Table 1B, unit assumed
Experimental: as §1, §2, §3

[8] = test system: Streptococcus bovis A-5169; assay: In vitro agar dilution MIC, organism code JJ; settings: Table 1B, unit assumed
Experimental: as §1, §2, §3

Escherichia coli JUHL = assay: In vitro agar dilution MIC, organism code QQ; settings: Table 1B, in µg/mL (unit assumed)
Experimental: as §1, §2, §3

[9] = test system: Staphylococcus aureus 1775; assay: In vitro agar dilution MIC, organism code GG; settings: Table 1B, unit assumed
Experimental: as §1, §2, §3

[10] = test system: Staphylococcus epidermidis 3519; assay: In vitro agar dilution MIC, organism code HH; settings: Table 1B, in µg/mL (unit assumed)
Experimental: as §1, §2, §3

[11] = test system: Streptococcus pneumoniae ATCC 6303; assay: In vitro agar dilution MIC, organism code XX; settings: Table 1B, unit assumed
Experimental: as §1, §2, §3

Escherichia coli SS = assay: In vitro agar dilution MIC, organism code RR; settings: Table 1B, in µg/mL (unit assumed)
Experimental: as §1, §2, §3

[12] = test system: Staphylococcus aureus ATCC 6538P; assay: In vitro agar dilution MIC, organism code AA; settings: Table 1B, unit assumed
Experimental: as §1, §2, §3

[13] = test system: Enterococcus faecium ATCC 8043; assay: In vitro agar dilution MIC, organism code II; settings: Table 1B, unit assumed
Experimental: as §1, §2, §3

[14] = test system: Streptococcus pyogenes 930; assay: In vitro agar dilution MIC, organism code MM; settings: Table 1B, unit assumed
Experimental: as §1, §2, §3

[15] = test system: Streptococcus pyogenes EES61; assay: In vitro agar dilution MIC, organism code LL; settings: Table 1B, unit assumed
Experimental: as §1, §2, §3

[16] = test system: Staphylococcus aureus CMX 642A; assay: In vitro agar dilution MIC, organism code DD; settings: Table 1B, unit assumed
Experimental: as §1, §2, §3

[17] = test system: Nocardia asteroides ATCC 9970; assay: In vitro agar dilution MIC, organism code VV; settings: Table 1B, in µg/mL (unit assumed)
Experimental: as §1
as §2, with “comparability. Erythromycin A was used for this purpose.” for “comparability.”
as §3

[18] = test system: Streptococcus pneumoniae 5649; assay: In vitro agar dilution MIC, organism code ZZA; settings: Table 1B, unit assumed
Experimental: as §1, §2, §3

[19] = test system: Staphylococcus aureus NCTC10649M; assay: In vitro agar dilution MIC, organism code EE; settings: Table 1B, unit assumed
Experimental: as §1, §2, §3

Escherichia coli DC-2 = assay: In vitro agar dilution MIC, organism code SS; settings: Table 1B, unit assumed
Experimental: as §1, §2, §3

[20] = test system: Haemophilis influenzae DILL AMP R; assay: In vitro agar dilution MIC, organism code WW; settings: Table 1B, unit assumed
Experimental: as §1, §2, §3

[21] = test system: Streptococcus pneumoniae GYR 1171; assay: In vitro agar dilution MIC, organism code YY; settings: Table 1B, unit assumed
Experimental: as §1, §2, §3

[22] = test system: Mycobacterium smegmatis ATCC 114; assay: In vitro agar dilution MIC, organism code UU; settings: Table 1B, in µg/mL (unit assumed)
Experimental: as §1, §2, §3

[23] = test system: Streptococcus pyogenes PIU 2548; assay: In vitro agar dilution MIC, organism code NN; settings: Table 1B, unit assumed
Experimental: as §1, §2, §3

SMILES | MIC [1] [µg/mL] | MIC [2] | MIC [3] [µg/mL] | MIC [4] [µg/mL] | MIC [5] [µg/mL] | MIC [6] | MIC (Candida albicans CCH 442) [µg/mL] | MIC [7] [µg/mL] | MIC [8] [µg/mL] | MIC (Escherichia coli JUHL) | MIC [9] [µg/mL] | MIC [10] | MIC [11] [µg/mL] | MIC (Escherichia coli SS) | MIC [12] [µg/mL] | MIC [13] [µg/mL] | MIC [14] [µg/mL] | MIC [15] [µg/mL] | MIC [16] [µg/mL] | MIC [17] | further results
CC[C@H]1OC(=O)C(C)(F)C(=O)[C@H](C)[C@@H](O[C@@H]2O[C@H](C)C[C@H](N(C)C)[C@H]2O)[C@](C)(OCC#Cc2cnc3ccccc3c2)C[C@@H](C)C(=O)[C@H](C)[C@H]2NC(=O)O[C@@]21C (stereo partly drawn) [Example 26] | 16 (≈ 20.5 µM) | 0.05 | 0.05 (≈ 0.0639 µM) | 0.02 (≈ 0.0256 µM) | > 100 | 0.05 | > 100 | 0.02 (≈ 0.0256 µM) | 0.01 (≈ 0.0128 µM) | 25 | > 100 | 0.05 | ≤ 0.004 | 0.2 | 0.05 (≈ 0.0639 µM) | 0.02 (≈ 0.0256 µM) | 0.1 (≈ 0.128 µM) | 0.02 (≈ 0.0256 µM) | 0.05 (≈ 0.0639 µM) | 0.01 | MIC [18]: 0.25 µg/mL (≈ 0.32 µM); MIC [19]: 0.1 µg/mL (≈ 0.128 µM); MIC (Escherichia coli DC-2): 25 µg/mL (≈ 32 µM); MIC [20]: 2 µg/mL (≈ 2.56 µM); MIC [21]: ≤ 0.004 µg/mL; MIC [22]: 0.2; MIC [23]: 0.05 µg/mL (≈ 0.0639 µM)
CC[C@H]1OC(=O)[C@@](C)(F)C(=O)[C@H](C)[C@@H](O[C@@H]2O[C@H](C)C[C@H](N(C)C)[C@H]2O)[C@](C)(OC/C=C/c2cnc3ccc(C=NN)cc3c2)C[C@@H](C)C(=O)[C@H](C)[C@H]2NC(=O)O[C@@]21C [Example 19] | 1 (≈ 1.21 µM) | 0.1 | 0.2 (≈ 0.242 µM) | 0.02 (≈ 0.0242 µM) | > 100 | 0.2 | > 100 | 0.02 (≈ 0.0242 µM) | ≤ 0.005 | 100 | > 100 | 0.2 | 0.06 (≈ 0.0726 µM) | 0.78 | 0.1 (≈ 0.121 µM) | 0.05 (≈ 0.0605 µM) | 1.56 (≈ 1.89 µM) | 0.02 (≈ 0.0242 µM) | 0.2 (≈ 0.242 µM) | 0.02 | MIC [18]: 0.5 µg/mL (≈ 0.605 µM); MIC [19]: 0.2 µg/mL (≈ 0.242 µM); MIC (Escherichia coli DC-2): 100 µg/mL (≈ 121 µM); MIC [20]: 2 µg/mL (≈ 2.42 µM); MIC [21]: 0.06 µg/mL (≈ 0.0726 µM); MIC [22]: 0.78; MIC [23]: 0.2 µg/mL (≈ 0.242 µM)
CC[C@H]1OC(=O)C(C)(F)C(=O)[C@H](C)[C@@H](O[C@@H]2O[C@H](C)C[C@H](N(C)C)[C@H]2O)[C@](C)(OCC#CC(=O)c2ccc(Cl)nc2)C[C@@H](C)C(=O)[C@H](C)[C@H]2NC(=O)O[C@@]21C (stereo partly drawn) [Example 25] | 0.06 (≈ 0.0755 µM) | 0.39 | 0.39 (≈ 0.491 µM) | 0.1 (≈ 0.126 µM) | > 100 | 0.39 | > 100 | 0.2 (≈ 0.252 µM) | 0.1 (≈ 0.126 µM) | > 100 | > 100 | 0.39 | ≤ 0.004 | 3.1 | 0.39 (≈ 0.491 µM) | 0.2 (≈ 0.252 µM) | 6.2 (≈ 7.81 µM) | 0.1 (≈ 0.126 µM) | 0.39 (≈ 0.491 µM) | 0.2 | MIC [18]: 0.06 µg/mL (≈ 0.0755 µM); MIC [19]: 0.78 µg/mL (≈ 0.982 µM); MIC (Escherichia coli DC-2): > 100 µg/mL; MIC [20]: 2 µg/mL (≈ 2.52 µM); MIC [21]: ≤ 0.004 µg/mL; MIC [22]: 0.78; MIC [23]: 0.39 µg/mL (≈ 0.491 µM)
